Test results taken from US20230042917A1, “DIRECT REPROGRAMMING OF SOMATIC CELLS INTO MYOGENIC CELLS” (THE GENERAL HOSPITAL CORPORATION, priority 2016, published 2023).

Tested on: MEFs expressing MyoD
Assay: Reprogramming of MyoD-expressing MEFs with small molecules (myotubes, proliferative cells, contraction, Pax7 staining)
Assay type: cell-based, mouse
Settings: for formation of MyHC+, polynucleated myotubes / generation of proliferative cells: Knockout DMEM, 10% KOSR, 10% FBS, 10 ng/ml bFGF
Description: A doxycycline (dox) inducible lentiviral system (tetOP-MyoD) was engineered, allowing for inducible and reversible activation of MyoD in target cells. […] The myogenic identity of converted cells was confirmed by immunofluorescence staining for the differentiation marker myosin heavy chain (MyHC), which was absent in uninfected MEFs (FIG. 14C).
MEFs undergoing MyoD-induced lineage conversion were exposed to various small molecules and cytokines in an attempt to induce reprogramming into a proliferative, myogenic progenitor-like cell state in addition to mature myotubes (FIG. 14A, bottom row). Specifically, compounds including the GSK3β inhibitor CHIR99021 (abbreviated as “G”) and the TGF-01 receptor inhibitor RepSox (abbreviated as “R”) were used. In addition, the effect of the cyclic AMP agonist Forskolin (abbreviated as “F”), which reportedly facilitates the transient expansion of satellite cells in vitro was tested. These compounds were added individually or combinatorially to MEFs expressing MyoD and cultured in Knockout DMEM media containing 10% KOSR and 10% FBS and supplemented with 10 ng/ml bFGF, which promotes satellite cell and myoblast growth. […] Cultures treated with these small molecules typically assembled into three-dimensional colonies with emanating myotubes and numerous small, round cells that seem to be muscle progenitors (FIG. 14B and live video monitoring was used to monitor the muscle progenitors). KOSR media contains ascorbic acid, which enhances reprogramming into iPSCs by modulating epigenetic regulators. To determine whether ascorbic acid is required for the induction of these proliferative, putative progenitor cells using our culture system, MEFs expressing MyoD were exposed to F/R in the presence or absence of ascorbic acid using DMEM media containing FBS and bFGF but lacking KOSR.
To assess the temporal requirement for exogenous MyoD expression and small molecules during the establishment and maintenance of our progenitor-like cell population, infected MEFs were treated with dox for 0, 2, 4, 6, 8 or 10 days in the presence of F/R, followed by 5 days of dox withdrawal before scoring for colonies that proliferated and contracted (FIG. 14G). […] By contrast, continuous exposure of cultures to F/R was required to maintain these cultures upon passaging (FIG. 14G and data not shown). Thus, without being bound by any particular theory, small molecules and growth factors collaborate with transient MyoD expression to endow MEFs with a myogenic progenitor-like state. These cells are provisionally termed “induced myogenic progenitor cells” (iMPCs).
Mouse embryonic fibroblasts (MEFs), Tail-tip fibroblasts (TTFs) and the commercial myoblast cell line C2C12 (ATCC®CRL-1772™) were cultured in “MEF medium” containing DMEM (ThermoFisher Scientific, catalog number 10313-021), supplemented with 10% Fetal Bovine Serum (FBS) (HyClone catalog number SH30396.03), 1% GlutaMAX (ThermoFisher Scientific, catalog number 35050061), 1% non-essential amino acids (ThermoFisher Scientific, catalog number 11140050), 1% penicillin-streptomycin (ThermoFisher Scientific, catalog number 15140122), 0.5% β-mercaptoethanol (ThermoFisher Scientific, catalog number 21985-023). Freshly isolated satellite cells and derivative myoblasts were cultured using a 1:1 ratio of DMEM and F-10 (1×) Nutrient mix (ThermoFisher Scientific, catalog number 11550-043) supplemented with 10% horse serum (ThermoFisher Scientific, catalog number 16050-122), 20% FBS (HyClone catalog number SH30396.03) and […] basic-FGF (R&D 233-FB). Satellite cells and myoblasts were cultured on plates coated with Matrigel Basement Membrane Matrix (Catalog number 356237, Corning). […]

| Compound | Pax7+ cells (immunofluorescence) (MEFs expressing MyoD, in the presence of KOSR or ascorbate) | formation of MyHC+, polynucleated myotubes (MEFs expressing MyoD) | generation of proliferative cells (MEFs expressing MyoD) | generation of proliferative cells and contracting myotubes (MEFs expressing MyoD exposed to F/R, DMEM with FBS and bFGF lacking KOSR) | Pax7+ iMPC formation after withdrawal of SR (MyoD + FR, medium without serum replacement) |
| --- | --- | --- | --- | --- | --- |
| Cc1c[nH]c(-c2cnc(NCCNc3ccc(C#N)cn3)nc2-c2ccc(Cl)cc2Cl)n1 [G, CHIR99021] | only in the presence of FR | increased | did not generate any proliferative cells |  |  |
| Cc1cccc(-c2n[nH]cc2-c2ccc3ncccc3n2)n1 [R, 2-3[(6-methyl-2-pyridinyl)-1H-pyrazol-4-yl]-1,5-napthyridine] |  | increased | did not generate any proliferative cells |  |  |
| O=C1O[C@H]([C@@H](O)CO)C(O)=C1O [ascorbic acid] |  |  |  | depended on ascorbic acid | partially rescues this phenotype |
